Results: ChEMBL document CHEMBL1201862, “PubChem BioAssay data set” (2004)
Where “and” joins values, the source holds several entries; their conditions need not be identical. Identical values can stand only once. Calls of active or inactive are those of the source.

Legend:
[1] = molecular target: Delta-type opioid receptor (Homo sapiens, UniProt P41143); assay: Counterscreen for agonists of heterodimerization of the mu 1 (OPRM1) and delta 1 (OPRD1) opioid receptors: Luminescence-based cell-based high throughput dose response assay to identify agonists of OPRD1 homodimerization. [Related pubchem assays (depositor defined):AID504326, AID504355, AID504692, AID504904, AID504905]; type: functional
Mu-type opioid receptor = Mu-type opioid receptor (Homo sapiens, UniProt P35372); assay: Counterscreen for agonists of heterodimerization of the mu 1 (OPRM1) and delta 1 (OPRD1) opioid receptors: Luminescence-based cell-based high throughput dose response assay to identify agonists of OPRM1 homodimerization.; type: functional;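 further: U2OS cells expressing OPRM1 and beta-arrestin as split beta-galactosidase partners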
[2] = molecular target: 5-hydroxytryptamine receptor 5A (Homo sapiens, UniProt P47898); assay: Counterscreen for agonists of OPRM1-OPRD1 heterodimerization: luminescence-based cell-based high throughput dose response assay to identify agonists of 5-hydroxytryptamine (serotonin) 5A receptor (HTR5A). [Related pubchem assays (depositor defined):AID504326, AID504355, AID504692, AID504904, AID504905]; type: functional
[3] = rise of 2N DNA cells, HeLa – IC50, dose response (AID 1117349); type: functional, cell-based
[4] = CellTiter-Glo luminescence survival assay, SW480 colon tumor line, concentration-response curve, half-maximal inhibitory concentration (AID 1117338); type: functional
[5] = RKO cell viability reduction, dose response, CellTiter-Glo luminescence (AID 1117322); type: functional
[6] = cytotoxicity toward HCT116 cells – cell-based, CellTiter-Glo luminescence, IC50, dose response (AID 1117332); type: functional; details: HCT-116
[7] = SNU-C1 cell viability reduction, dose response, CellTiter-Glo luminescence (AID 1117323); type: functional, cell-based
[8] = cytotoxicity toward Colo320 cells – cell-based, CellTiter-Glo luminescence, IC50, dose response (AID 1117334); type: functional; details: COLO 320
[9] = rise of 4N DNA cells, HeLa – IC50, dose response (AID 1117351); type: functional, cell-based
[10] = cytotoxicity toward HT-29 cells – cell-based, CellTiter-Glo luminescence, IC50, dose response (AID 1117330); type: functional
[11] = Reduced DLD-1 viability, concentration-response, CellTiter-Glo luminescence (AID 1117352); type: functional
[12] = HCT116 cell viability decrease, GSK3B pretreatment – CellTiter-Glo, IC50, dose response (AID 1117339); type: functional; details: HCT-116
14-3-3 protein gamma = 14-3-3 protein gamma (Homo sapiens, UniProt P61981); assay: modulators of 14-3-3 gamma client binding – dose response (AID 711); type: functional
Prothrombin = Prothrombin (Homo sapiens, UniProt P00734); assay: Thrombin 1536 HTS Dose Response Confirmation. [Related pubchem assays: 1046 (Thrombin 1536 HTS; hits were confirmed in this assay)]; type: functional
[13] = molecular target: Induced myeloid leukemia cell differentiation protein Mcl-1 (Homo sapiens, UniProt Q07820); type: functional
[14] = molecular target: Peroxisome proliferator-activated receptor gamma/Nuclear receptor corepressor 2 (Homo sapiens, UniProt P37231+Q9Y618); assay: Counterscreen for NR2E3 inverse agonists: TR-FRET-based biochemical high throughput dose response assay to identify inverse agonists of the interaction between peroxisome proliferator-activated receptor gamma (PPARg) and nuclear receptor co-repressor 2 (NCOR2).; type: functional
[15] = molecular target: Photoreceptor-specific nuclear receptor (Homo sapiens, UniProt Q9Y5X4); assay: ligands suppressing NR2E3 nuclear receptor activity – biochemical, TR-FRET, dose response (AID 463256); type: functional
Ephrin type-A receptor 4 = Ephrin type-A receptor 4 (Mus musculus, UniProt Q03137); assay: EphA4 ligand-binding antagonists – biochemical, colorimetric, mouse EphA4, primary screen (AID 689); type: functional
Cytochrome P450 2C19 = Cytochrome P450 2C19 (Homo sapiens, UniProt P33261); assay: Cytochrome panel assay with activity outcomes. Panel member name: p450-cyp2c19 Compounds with AC50 equal or less than 10 uM are considered active; type: functional
[16] = molecular target: UDP-galactopyranose mutase (Mycobacterium tuberculosis, UniProt P9WIQ1); assay: Inhibitors of Mycobacterium tuberculosis UDP-galactopyranose mutase (UGM) enzyme Measured in Biochemical System Using Plate Reader - 2105-02_Inhibitor_Dose_CherryPick_Activity. [Related pubchem assays (depositor defined):AID504439]
NADPH oxidase 1 = NADPH oxidase 1 (Homo sapiens, UniProt Q9Y5S8); assay: Late-stage luminescence-based cell-based dose response assay to identify inhibitors of NADPH oxidase 1 (NOX1): Purchased analogs 2.; type: functional
Vero [17] = assay: mammalian cell viability reduction – secondary assay, cytotoxicity control for West Nile virus antiviral project, dose response (AID 1650); type: functional; details: Chlorocebus sabaeus
Vero [18] = assay: inhibition of WNV-induced cytopathic effect – cell-based, CPE readout (AID 1621); type: functional; details: Chlorocebus sabaeus
[19] = A High Throughput Confirmatory Assay used to Identify Novel Compounds that Inhibit Mycobacterium Tuberculosis in the absence of Glycerol.; type: functional
[20] = M. tuberculosis growth inhibition, HTS (AID 449762); type: functional

Chain of Delta-type opioid receptor (P41143 whole entry): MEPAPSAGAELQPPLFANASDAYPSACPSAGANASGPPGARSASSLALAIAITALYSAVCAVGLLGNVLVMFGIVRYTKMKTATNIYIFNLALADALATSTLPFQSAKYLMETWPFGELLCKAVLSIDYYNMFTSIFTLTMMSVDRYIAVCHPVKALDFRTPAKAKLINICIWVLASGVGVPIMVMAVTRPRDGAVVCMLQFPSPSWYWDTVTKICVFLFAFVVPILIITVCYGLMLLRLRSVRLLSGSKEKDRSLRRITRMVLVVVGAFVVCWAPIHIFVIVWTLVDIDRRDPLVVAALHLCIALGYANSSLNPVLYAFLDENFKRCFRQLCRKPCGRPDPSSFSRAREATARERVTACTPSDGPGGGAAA
Chain of Ephrin type-A receptor 4 (Q03137 whole entry): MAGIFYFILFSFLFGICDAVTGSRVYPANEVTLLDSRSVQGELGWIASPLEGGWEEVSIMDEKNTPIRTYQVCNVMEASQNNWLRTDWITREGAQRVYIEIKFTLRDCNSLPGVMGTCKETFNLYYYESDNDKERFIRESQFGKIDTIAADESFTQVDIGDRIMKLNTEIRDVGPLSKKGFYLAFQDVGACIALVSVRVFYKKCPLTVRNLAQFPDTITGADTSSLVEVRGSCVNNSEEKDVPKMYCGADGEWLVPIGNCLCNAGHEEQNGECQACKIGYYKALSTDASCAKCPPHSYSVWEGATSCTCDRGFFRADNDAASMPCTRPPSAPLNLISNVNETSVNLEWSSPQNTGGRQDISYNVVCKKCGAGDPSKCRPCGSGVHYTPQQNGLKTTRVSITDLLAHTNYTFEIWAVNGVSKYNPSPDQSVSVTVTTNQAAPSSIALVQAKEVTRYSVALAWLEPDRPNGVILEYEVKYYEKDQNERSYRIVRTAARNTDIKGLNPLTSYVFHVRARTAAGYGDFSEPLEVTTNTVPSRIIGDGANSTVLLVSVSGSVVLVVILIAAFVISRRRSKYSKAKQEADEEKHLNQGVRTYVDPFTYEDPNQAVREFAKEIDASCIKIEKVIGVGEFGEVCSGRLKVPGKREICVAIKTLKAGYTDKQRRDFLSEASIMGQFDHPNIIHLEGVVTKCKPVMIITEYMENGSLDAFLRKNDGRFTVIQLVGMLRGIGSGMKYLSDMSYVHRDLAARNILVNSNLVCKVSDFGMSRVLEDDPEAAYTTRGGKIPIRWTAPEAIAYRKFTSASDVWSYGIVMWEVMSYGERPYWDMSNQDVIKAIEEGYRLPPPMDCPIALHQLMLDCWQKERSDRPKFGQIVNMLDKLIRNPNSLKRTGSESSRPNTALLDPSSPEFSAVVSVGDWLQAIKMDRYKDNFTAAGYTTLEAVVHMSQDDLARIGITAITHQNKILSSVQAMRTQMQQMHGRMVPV
Chain of NADPH oxidase 1 (Q9Y5S8 whole entry): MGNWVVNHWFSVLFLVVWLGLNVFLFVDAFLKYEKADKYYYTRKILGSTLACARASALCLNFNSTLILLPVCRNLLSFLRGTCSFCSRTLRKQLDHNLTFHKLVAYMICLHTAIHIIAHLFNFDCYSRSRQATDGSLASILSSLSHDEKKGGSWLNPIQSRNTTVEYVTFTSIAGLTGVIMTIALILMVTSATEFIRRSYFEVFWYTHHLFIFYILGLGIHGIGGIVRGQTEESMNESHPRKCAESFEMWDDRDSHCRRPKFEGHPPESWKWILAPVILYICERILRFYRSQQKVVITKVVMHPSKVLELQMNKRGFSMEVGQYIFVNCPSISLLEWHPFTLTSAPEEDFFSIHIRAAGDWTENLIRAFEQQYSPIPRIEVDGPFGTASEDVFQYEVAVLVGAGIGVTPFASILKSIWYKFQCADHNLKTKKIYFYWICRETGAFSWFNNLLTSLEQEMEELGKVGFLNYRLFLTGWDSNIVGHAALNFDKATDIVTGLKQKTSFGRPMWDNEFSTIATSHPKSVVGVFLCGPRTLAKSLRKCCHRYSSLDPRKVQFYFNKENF
Chain of Peroxisome proliferator-activated receptor gamma/Nuclear receptor corepressor 2 (P37231 whole entry): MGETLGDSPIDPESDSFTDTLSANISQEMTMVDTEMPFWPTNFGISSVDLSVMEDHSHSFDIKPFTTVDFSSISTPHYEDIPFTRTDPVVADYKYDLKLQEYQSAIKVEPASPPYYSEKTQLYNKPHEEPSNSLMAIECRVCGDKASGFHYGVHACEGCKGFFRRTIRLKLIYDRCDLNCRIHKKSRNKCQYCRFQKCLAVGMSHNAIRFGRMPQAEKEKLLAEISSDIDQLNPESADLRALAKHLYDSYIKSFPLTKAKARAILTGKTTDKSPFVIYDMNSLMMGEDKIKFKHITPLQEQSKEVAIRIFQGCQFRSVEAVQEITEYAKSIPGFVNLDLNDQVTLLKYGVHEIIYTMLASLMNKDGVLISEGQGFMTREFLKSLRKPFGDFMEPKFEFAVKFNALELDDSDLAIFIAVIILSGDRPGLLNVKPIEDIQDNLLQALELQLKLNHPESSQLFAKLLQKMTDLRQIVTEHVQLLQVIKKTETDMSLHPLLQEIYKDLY
Chain of Peroxisome proliferator-activated receptor gamma/Nuclear receptor corepressor 2 (Q9Y618 whole entry): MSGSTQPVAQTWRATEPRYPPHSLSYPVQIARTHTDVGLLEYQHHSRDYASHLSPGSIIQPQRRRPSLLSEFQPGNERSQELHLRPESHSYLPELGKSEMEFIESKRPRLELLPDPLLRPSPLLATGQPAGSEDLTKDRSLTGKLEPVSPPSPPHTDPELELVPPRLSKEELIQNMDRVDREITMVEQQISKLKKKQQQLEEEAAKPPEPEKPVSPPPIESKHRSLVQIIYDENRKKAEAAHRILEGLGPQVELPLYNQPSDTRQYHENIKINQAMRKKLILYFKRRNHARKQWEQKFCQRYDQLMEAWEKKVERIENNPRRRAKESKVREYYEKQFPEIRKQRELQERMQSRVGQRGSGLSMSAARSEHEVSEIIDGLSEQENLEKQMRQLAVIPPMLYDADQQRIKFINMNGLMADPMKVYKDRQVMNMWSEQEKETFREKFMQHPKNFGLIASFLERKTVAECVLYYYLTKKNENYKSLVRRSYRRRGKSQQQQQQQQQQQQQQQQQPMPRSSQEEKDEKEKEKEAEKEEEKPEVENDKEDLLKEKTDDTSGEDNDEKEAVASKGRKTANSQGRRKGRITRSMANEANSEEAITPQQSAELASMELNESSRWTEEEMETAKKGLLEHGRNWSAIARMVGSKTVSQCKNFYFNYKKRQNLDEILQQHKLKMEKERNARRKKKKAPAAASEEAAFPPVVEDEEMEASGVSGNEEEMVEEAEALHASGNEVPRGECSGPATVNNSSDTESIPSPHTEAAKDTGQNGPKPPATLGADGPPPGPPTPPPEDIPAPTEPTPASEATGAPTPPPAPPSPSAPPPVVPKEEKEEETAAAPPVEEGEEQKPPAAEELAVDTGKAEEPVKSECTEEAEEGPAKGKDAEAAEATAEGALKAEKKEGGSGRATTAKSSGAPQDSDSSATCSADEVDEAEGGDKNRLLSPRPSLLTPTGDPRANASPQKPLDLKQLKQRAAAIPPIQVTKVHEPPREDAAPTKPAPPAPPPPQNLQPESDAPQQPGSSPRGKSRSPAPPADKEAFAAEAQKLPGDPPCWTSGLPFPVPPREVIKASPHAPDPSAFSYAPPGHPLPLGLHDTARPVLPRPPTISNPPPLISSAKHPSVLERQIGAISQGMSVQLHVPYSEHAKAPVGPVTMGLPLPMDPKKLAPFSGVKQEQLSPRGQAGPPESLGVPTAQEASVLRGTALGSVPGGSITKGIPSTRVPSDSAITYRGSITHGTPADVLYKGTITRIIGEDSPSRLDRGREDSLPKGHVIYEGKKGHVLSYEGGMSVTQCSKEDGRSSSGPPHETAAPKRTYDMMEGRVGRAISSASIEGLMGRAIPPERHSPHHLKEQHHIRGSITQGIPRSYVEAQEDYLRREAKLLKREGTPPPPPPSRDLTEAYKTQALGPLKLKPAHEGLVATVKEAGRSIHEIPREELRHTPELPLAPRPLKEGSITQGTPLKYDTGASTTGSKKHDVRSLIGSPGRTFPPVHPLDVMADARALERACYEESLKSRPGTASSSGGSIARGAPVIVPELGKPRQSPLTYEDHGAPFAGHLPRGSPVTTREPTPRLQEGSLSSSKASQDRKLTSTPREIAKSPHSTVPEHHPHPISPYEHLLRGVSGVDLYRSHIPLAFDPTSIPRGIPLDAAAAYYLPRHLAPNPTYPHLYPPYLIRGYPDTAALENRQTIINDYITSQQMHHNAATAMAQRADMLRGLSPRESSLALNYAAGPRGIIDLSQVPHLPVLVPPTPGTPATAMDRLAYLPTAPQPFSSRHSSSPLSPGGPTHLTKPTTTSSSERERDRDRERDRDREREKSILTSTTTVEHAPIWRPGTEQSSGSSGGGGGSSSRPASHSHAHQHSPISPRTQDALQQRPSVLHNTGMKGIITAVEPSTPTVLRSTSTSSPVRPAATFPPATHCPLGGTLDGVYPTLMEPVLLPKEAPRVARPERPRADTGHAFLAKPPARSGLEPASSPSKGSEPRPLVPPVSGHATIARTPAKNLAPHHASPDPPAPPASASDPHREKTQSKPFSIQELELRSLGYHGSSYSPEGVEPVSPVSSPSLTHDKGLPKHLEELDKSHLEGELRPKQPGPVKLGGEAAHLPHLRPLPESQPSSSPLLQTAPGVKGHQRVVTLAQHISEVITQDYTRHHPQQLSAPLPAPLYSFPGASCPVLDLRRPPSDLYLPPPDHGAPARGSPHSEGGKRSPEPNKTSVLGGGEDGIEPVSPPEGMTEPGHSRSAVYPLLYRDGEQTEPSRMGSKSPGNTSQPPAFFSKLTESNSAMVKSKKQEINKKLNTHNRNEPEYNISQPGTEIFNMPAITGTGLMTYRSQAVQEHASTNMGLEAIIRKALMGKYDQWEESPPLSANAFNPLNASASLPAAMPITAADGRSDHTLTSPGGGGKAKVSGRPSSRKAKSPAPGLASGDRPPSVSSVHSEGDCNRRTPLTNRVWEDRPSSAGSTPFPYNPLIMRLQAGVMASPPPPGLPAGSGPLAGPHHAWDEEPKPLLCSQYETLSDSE

For `CCC(COC(=O)c1cc(OC)c(OC)c(OC)c1)(c1ccccc1)N(C)C` (stereo unspecified), which EC50 [1] is on record?
Its EC50 is > 92.5 µM (inactive) and 65.1 µM (inactive).

What about the EC50 (Mu-type opioid receptor) of the same molecule?
Its EC50 is > 92.5 µM (inactive).

And the EC50 [2]?
Its EC50 is > 92.5 µM (inactive).

What about the IC50 [3] of the same molecule?
The IC50 was > 10 µM (inactive).

What about the IC50 [4] of the same molecule?
The IC50 was > 20 µM (inactive).

What about the IC50 [5] of the same molecule?
The IC50 was 0.142 µM (active).

And the IC50 [6]?
Its IC50 is > 20 µM (inactive).

What about the IC50 [7] of the same molecule?
Its IC50 is 2.45 µM (active).

And the IC50 [8]?
The IC50 was > 20 µM (inactive).

What about the IC50 [9] of the same molecule?
The IC50 was > 10 µM (inactive).

What about the IC50 [10] of the same molecule?
The IC50 was > 20 µM (inactive).

And the IC50 [11]?
The IC50 was > 20 µM (inactive).

What about the IC50 [12] of the same molecule?
Its IC50 is 1.61 µM (active).

With `COCCNC(=O)C(c1ccncc1)N(C(=O)Cn1nnc2ccccc21)c1ccc(OC)cc1` (stereo unspecified) as the molecule, how does the IC50 (14-3-3 protein gamma) read?
The IC50 was 24.6 µM (active).

Which results are given for `O=[N+]([O-])c1ccc(-c2cc(O)n3nc(-c4ccc(Cl)cc4)cc3n2)cc1`?
IC50 (Prothrombin): > 50 µM (not active); IC50 [13]: 1.72 µM (active)

Which results are given for `COc1ccc(-c2oc3ncn4nc(Cc5ccccc5)nc4c3c2-c2ccc(OC)cc2)cc1`?
IC50 [14]: 6.02 µM (active); IC50 [15]: 7.69 µM (active)

What does the source list for `CCCCn1nc(-c2ccccc2)c2nc3ccccc3nc21`?
IC50 (Ephrin type-A receptor 4): 13.1 µM (active); AC50 (Cytochrome P450 2C19): inconclusive; AC50 [16]: 41.9 µM (active)

Which IC50 (NADPH oxidase 1) does the source give for `O=[N+]([O-])c1ccc(/C=N/Nc2c(Cl)cc(Cl)cc2Cl)cc1` here?
The IC50 was > 17 µM (not active).

For `CC(C)c1cc(C(C)C)c(S(=O)(=O)N2c3ccccc3[C@]3(Br)C[C@H]4C(=O)N[C@@H](Cc5ccccc5)C(=O)N4[C@H]23)c(C(C)C)c1`, which CC50 (Vero [17]) is on record?
Its CC50 is 13.7 µM (active).

What about the IC50 (Vero [18]) of the same molecule?
Its IC50 is 39.9 µM (active).

With `CCCOc1cccc(C(=O)NC(=S)Nc2ccc(N3CCN(C)CC3)cc2)c1` as the molecule, how does the IC50 [19] read?
Its IC50 is > 100 µM (active).

And the IC50 [20]?
Its IC50 is > 100 µM (active).
